The pIC50 is the IC50 on a negative log10 scale, so that one unit is a factor of ten. The term pKi denotes the Ki on a negative log10 scale, so that one unit is a factor of ten.

We go through 3 molecules from ChEMBL document CHEMBL5113488, “Design, synthesis and antitumor activity study of a gemcitabine prodrug conjugated with a HDAC6 inhibitor” (Bioorg Med Chem Lett, 2022).

In one series the test system is SK-OV-3. The series is described as follows: Antiproliferative activity against human SK-OV-3 cells assessed as inhibition of cell growth. Format: functional, cell-based.
The subject of the next series is PANC-1. Put plainly: Antiproliferative activity against human PANC-1 cells assessed as inhibition of cell growth. The class given is functional, cell-based.
A further series concerns A549. The series is described as follows: Antiproliferative activity against human A549 cells assessed as inhibition of cell growth. The class given is functional, cell-based.
Series [1] concerns MDA-MB-231. The series is described as follows: Antiproliferative activity against human MDA-MB-231 cells assessed as inhibition of cell growth incubated in presence of 10 uM imatinib. The class given is functional, cell-based.
The subject of series [2] is MDA-MB-231. Put plainly: Antiproliferative activity against human MDA-MB-231 cells assessed as inhibition of cell growth. Format: functional, cell-based.
For the next series, the system named is HeLa. The series is described as follows: Antiproliferative activity against human HeLa cells assessed as inhibition of cell growth. Format: functional, cell-based.
A further series concerns HCT-116. The series is described as follows: Antiproliferative activity against human HCT-116 cells assessed as inhibition of cell growth. Format: functional, cell-based.
The test system of another series is SGC-7901. Put plainly: Antiproliferative activity against human SGC-7901 cells assessed as inhibition of cell growth. The class given is functional, cell-based.
Series [3] deals with 4T1. The series is described as follows: Antitumor activity against mouse 4T1 cells implanted in mouse assessed as tumor growth inhibition at 10 mg/kg administered for 15 days relative to control. The class given is functional. To be noted: 4T1, 360 h, time 15 day, read-out: TGI.
Series [4] concerns MDA-MB-231. The series is described as follows: Antiproliferative activity against human MDA-MB-231 cells assessed as inhibition of cell growth pretreated with hENT1 inhibitor, dipyridamole at 10 uM followed by compound addition. The class given is functional, cell-based.
Series [5] has as its system 4T1. Put plainly: Antiproliferative activity against mouse 4T1 cells assessed as inhibition of cell growth. The class given is functional, cell-based.
The next series concerns Huh-7. Put plainly: Antiproliferative activity against human Huh-7 cells assessed as inhibition of cell growth. Format: functional, cell-based.
A short description of series [6]: Toxicity in mouse implanted with mouse 4T1 cells assessed as body weight loss at 5 to 10 mg/kg administered for 15 days. Format: organism-based. The settings on record: 4t1, 360 h, dose 5-10 mg/kg, time 15 day.
The target in another series is T1, Cytochrome P450 2D1 (Rattus norvegicus, UniProt P10633).
T1 sequence (P10633 whole entry): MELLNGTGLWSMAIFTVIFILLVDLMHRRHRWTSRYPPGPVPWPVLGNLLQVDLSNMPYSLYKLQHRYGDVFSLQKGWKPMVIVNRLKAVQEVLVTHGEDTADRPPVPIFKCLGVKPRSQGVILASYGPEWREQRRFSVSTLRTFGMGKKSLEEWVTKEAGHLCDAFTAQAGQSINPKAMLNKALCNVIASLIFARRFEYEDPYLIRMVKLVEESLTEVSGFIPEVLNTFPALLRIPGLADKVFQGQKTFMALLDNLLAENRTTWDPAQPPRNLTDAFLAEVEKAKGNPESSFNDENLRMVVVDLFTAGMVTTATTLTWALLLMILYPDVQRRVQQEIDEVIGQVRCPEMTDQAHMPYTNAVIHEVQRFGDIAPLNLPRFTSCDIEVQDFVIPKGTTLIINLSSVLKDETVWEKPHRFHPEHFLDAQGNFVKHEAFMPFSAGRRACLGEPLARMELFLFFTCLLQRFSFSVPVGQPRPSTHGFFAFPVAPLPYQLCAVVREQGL
The series is described as follows: Inhibition of CYP2D1 in rat liver microsomes using dextromethorphan as substrate. Format: ADME, Microsome. (In general: Liver microsomes are a subcellular fraction often used to study metabolism.)

For another series, the target named is T2, Cytochrome P450 2C6 (Rattus norvegicus, UniProt P05178).
T2 sequence (P05178 whole entry): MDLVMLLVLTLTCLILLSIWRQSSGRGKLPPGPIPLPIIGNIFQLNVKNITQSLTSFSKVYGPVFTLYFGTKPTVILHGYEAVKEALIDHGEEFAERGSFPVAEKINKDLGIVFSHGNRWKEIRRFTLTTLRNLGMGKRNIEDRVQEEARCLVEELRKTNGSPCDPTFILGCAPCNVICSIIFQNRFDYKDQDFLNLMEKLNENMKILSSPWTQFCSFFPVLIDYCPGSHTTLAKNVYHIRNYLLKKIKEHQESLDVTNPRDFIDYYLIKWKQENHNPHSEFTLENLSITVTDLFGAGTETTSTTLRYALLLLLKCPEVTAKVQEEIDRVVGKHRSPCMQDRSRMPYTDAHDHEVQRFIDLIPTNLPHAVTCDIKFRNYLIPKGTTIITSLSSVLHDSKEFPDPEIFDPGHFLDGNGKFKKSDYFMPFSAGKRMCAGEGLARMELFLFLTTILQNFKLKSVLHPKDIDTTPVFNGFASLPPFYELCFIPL
The series is described as follows: Inhibition of CYP2C6 in rat liver microsomes using diclofenac as substrate. Format: ADME, Microsome.

A short description of series [7]: Toxicity in mouse implanted with mouse 4T1 cells assessed as pathological damage in liver at 5 to 10 mg/kg administered for 15 days by H and E staining based analysis. The class given is organism-based. To be noted: 4t1, 360 h, dose 5-10 mg/kg, time 15 day.
The target of another series is Cytochrome P450 2E1 (Rattus norvegicus, UniProt P05182). The series is described as follows: Inhibition of CYP2E1 in rat liver microsomes using chlorzoxazone as substrate. Format: ADME, Microsome.
Sequence of Cytochrome P450 2E1 (P05182 whole entry): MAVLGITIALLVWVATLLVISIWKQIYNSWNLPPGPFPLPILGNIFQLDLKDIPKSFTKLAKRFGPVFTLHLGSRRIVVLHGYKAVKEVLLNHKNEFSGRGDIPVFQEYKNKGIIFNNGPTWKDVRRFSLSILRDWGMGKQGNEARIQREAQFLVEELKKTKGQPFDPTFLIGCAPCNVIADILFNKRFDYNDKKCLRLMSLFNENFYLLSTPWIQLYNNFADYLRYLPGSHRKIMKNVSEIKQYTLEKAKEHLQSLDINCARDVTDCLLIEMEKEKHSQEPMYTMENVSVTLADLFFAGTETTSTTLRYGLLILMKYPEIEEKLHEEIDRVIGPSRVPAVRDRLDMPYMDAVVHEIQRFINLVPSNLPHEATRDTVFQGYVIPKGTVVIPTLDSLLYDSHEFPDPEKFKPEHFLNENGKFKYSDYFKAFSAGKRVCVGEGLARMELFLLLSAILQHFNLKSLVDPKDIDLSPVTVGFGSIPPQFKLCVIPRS
Series [8] is described as follows: Toxicity in mouse implanted with mouse 4T1 cells assessed as pathological damage in heart at 5 to 10 mg/kg administered for 15 days by H and E staining based analysis. The class given is organism-based. To be noted: 4t1, 360 h, dose 5-10 mg/kg, time 15 day.
The subject of series [9] is 4T1. Put plainly: Antitumor activity against mouse 4T1 cells implanted in mouse assessed as tumor growth inhibition at 5 mg/kg administered for 15 days relative to control. To be noted: 4T1, 360 h, time 15 day, read-out: TGI. The class given is functional.
For series [10], the target named is T3, Cytochrome P450 3A2 (Rattus norvegicus, UniProt P05183).
T3 sequence (P05183 whole entry): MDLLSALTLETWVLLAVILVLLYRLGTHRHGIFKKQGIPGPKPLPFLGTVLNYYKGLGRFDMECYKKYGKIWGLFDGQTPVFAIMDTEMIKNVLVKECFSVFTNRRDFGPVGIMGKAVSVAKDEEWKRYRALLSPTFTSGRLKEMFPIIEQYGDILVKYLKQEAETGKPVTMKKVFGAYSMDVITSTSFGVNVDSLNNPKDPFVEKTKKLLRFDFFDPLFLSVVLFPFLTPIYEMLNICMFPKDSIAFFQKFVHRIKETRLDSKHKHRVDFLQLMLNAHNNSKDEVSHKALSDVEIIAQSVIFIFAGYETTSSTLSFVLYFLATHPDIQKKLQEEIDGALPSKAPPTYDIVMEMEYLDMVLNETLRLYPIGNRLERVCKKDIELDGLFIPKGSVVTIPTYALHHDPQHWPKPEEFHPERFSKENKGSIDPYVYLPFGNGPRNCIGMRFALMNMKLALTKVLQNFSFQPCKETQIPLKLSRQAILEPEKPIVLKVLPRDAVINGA
Put plainly: Inhibition of CYP3A2 in rat liver microsomes using midazolam as substrate. Format: ADME, Microsome.

For series [11], the system named is MDA-MB-231. Put plainly: Induction of DNA damage in human MDA-MB-231 cells assessed as increase in phospho-gamma-H2A.X expression level at 0.3 to 3 uM. Format: functional, cell-based. To be noted: dose 0.3-3 µM.
Series [12] can be described thus: Toxicity in mouse implanted with mouse 4T1 cells assessed as pathological damage in kidney at 5 to 10 mg/kg administered for 15 days by H and E staining based analysis. Format: organism-based. The settings on record: 4t1, 360 h, dose 5-10 mg/kg, time 15 day.
Another series has as its target T4, Cytochrome P450 1A2 (Rattus norvegicus, UniProt P04799).
T4 sequence (P04799 whole entry): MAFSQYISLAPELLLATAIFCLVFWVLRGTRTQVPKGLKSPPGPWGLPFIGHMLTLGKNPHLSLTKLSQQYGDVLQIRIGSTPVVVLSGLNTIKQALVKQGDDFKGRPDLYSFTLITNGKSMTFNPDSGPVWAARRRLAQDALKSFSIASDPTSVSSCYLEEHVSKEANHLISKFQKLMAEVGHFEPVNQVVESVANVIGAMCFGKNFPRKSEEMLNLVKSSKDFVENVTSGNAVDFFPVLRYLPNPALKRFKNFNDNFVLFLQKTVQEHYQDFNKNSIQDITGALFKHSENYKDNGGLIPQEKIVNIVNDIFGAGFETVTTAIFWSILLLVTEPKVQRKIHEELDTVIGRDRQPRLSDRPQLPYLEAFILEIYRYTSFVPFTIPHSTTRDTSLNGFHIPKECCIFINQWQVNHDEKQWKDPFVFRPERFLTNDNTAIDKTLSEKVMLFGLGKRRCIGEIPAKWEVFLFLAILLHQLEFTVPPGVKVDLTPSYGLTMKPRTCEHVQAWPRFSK
The series is described as follows: Inhibition of CYP1A2 in rat liver microsomes using phenacetin as substrate. The class given is ADME, Microsome.

Series [13] deals with T3, Cytochrome P450 3A2. The series is described as follows: Inhibition of CYP3A2-mediated metabolite formation in rat liver microsomes assessed as reduction in N-(1-((2R,4R,5R)-3,3-difluoro-4-hydroxy-5-(hydroxymethyl)tetrahydrofuran-2-yl)-2-oxo-1,2-dihydropyrimidin-4-yl)pentadecanamide metabolism. Format: ADME, Microsome.

pIC50, pKi: −log10 of the molar value. Calls of active or inactive are those of the source. No cut-off for these calls is given here.

As for `Nc1ccn([C@@H]2O[C@H](CO)[C@@H](O)C2(F)F)c(=O)n1` [GEMCITABINE], the pIC50 with SK-OV-3 was 6.36; with PANC-1 it was 5.87; in the series with A549, 6.42; with MDA-MB-231 [1] it was 6.09; in the series with MDA-MB-231 [2], 5.70; with HeLa it was 5.70. In addition, the negative logarithm of the IC50 (pIC50) is 5.52 in the series on HCT-116; 5.03 in the series on SGC-7901; 5.14 in the series with MDA-MB-231 [4]; 5.14 in the series on 4T1 [5]; 6.13 in the series with Huh-7. In addition, in the series with 4T1 [3], the inhibition in vivo at 10 mg/kg was 58.7%.
Take `CCCCCCCCCCCCCCC(=O)Nc1ccn([C@@H]2O[C@H](CO)[C@@H](O)C2(F)F)c(=O)n1`: the Activity entry in [6], in series [7], in series [8] and in series [12] was “Non-Toxic” each time. Moreover, the pIC50 is 6.21 in the series with SK-OV-3; 5.97 with PANC-1; 6.85 with A549; 7.14 in the series with MDA-MB-231 [1]; 6.85 in the series with MDA-MB-231 [2]; 6.37 in the series on HeLa. Further, the pIC50 with HCT-116 was 6.52; in the series on SGC-7901 it was 5.43; with MDA-MB-231 [4] it was 6.77; with 4T1 [5] it was 6.18; with Huh-7 it was 6.92. Also, the negative logarithm of the Ki (pKi) was 3.75 on Cytochrome P450 2D1; 3.69 at Cytochrome P450 2C6; 3.71 on Cytochrome P450 2E1; 4.28 at Cytochrome P450 3A2 [10]; 3.90 at Cytochrome P450 1A2. Further, the inhibition in vivo at 10 mg/kg in the series with 4T1 [3] is 83.8%. In the series with 4T1 [9], the inhibition in vivo at 5 mg/kg was 73.2%. Further, in the series with MDA-MB-231 [11], the outcome was Active.
Take `CC(=O)N1CCN(c2ccc(OCC3COC(Cn4ccnc4)(c4ccc(Cl)cc4Cl)O3)cc2)CC1` (stereo unspecified) [KETOCONAZOLE]: the “inhibition (INH)” value on Cytochrome P450 3A2 [13] is on record as “Active”.
